In brackets after ≈: the same amount, converted by molar mass.
Assays:
[1] = Solubility problem noted during the assays; type: physicochemical; conditions: noted under the 14C column, unit inferred; read-out: Sol Prob (solubility problem at concentration)
[2] = Weight loss screen; type: in vivo, Balb/C mice; conditions: 60 mg/ml (so in the source), day 1
Procedure: Weight Loss Screen Balb/C mice (Jackson Labs) are utilized for the initial weight loss screening. Animals are housed in temperature and 12 hour day/night cycle rooms and fed mouse chow and water ad lib. Three mice are utilized for each compound tested with vehicle controls in triplicate per experiment. For the experiments, mice are housed separately for each compound tested three mice to a cage. Compounds are diluted in DMSO at 10 mg/ml and mice are injected intraperitoneally with 60 mg/kg in approximately 100 μl of DMSO or with vehicle alone. Mice are observed and weighed daily; average weights and standard errors are computed with Excel (Microsoft). The experiment continues until treated animals reach their pretreatment weights.

[3] = tested on: OVCAR3 cells; assay: XTT cytotoxicity assay, OVCAR3 (OV); type: cell-based; conditions: Homo sapiens, OVCAR-3, unit given as ml
Procedure: (§1) XTT Cytotoxicity Assay The XTT assay is a non-radioactive alternative for the [^51Cr] release cytotoxicity assay. XTT is a tetrazolium salt that is reduced to a formazan dye only by metabolically active, viable cells. The reduction of XTT is measured spectrophotometrically as OD490-OD650. To measure the cytotoxicity of specific compounds against cancer cells, 9×10^3 MCF-7 human breast cancer cells (shown in the tables as “(M)”), obtained from the American Type Culture Collection are plated per well in 96 well plates in DMEM medium with 10% fetal bovine serum, insulin, penicillin, and streptomycin. Following overnight culture at 37° C. and 5% CO2, the compounds to be tested, dissolved in DMSO, are added to the wells in 1 μl volume at the following concentrations: 80, 40, 20, 10, 5, 2.5, 1.25, and 0.625 μg/ml in triplicate. Additional concentrations are tested if required. 1 μl of DMSO is added to triplicate wells are the vehicle control. C75 is run at 40, 20, […], and 5 μg/ml in triplicate as positive controls. After 72 hours of incubation, cells are incubated for 4 hours with the XTT reagent as per manufacturer's instructions (Cell Proliferation Kit II (XTT) Roche). Plates are read at OD490 and OD650 on a Molecular Devices SpectraMax Plus Spectrophotometer. Three wells containing the XTT reagent without cells serve as the plate blank. XTT data are reported as OD490-OD650. Averages and standard error of the mean are computed using SOFTmax Pro software (Molecular Dynamics). The IC50 for the compounds is defined as the concentration of drug leading to a 50% reduction in OD490-OD650 compared to controls. The OD490-OD650 are computed by the SOFTmax PRO software (Molecular Devices) for each compound concentration. IC50 is calculated by linear regression, plotting the FAS activity as percent of control versus drug concentrations. Linear regression, best-fit line, r^2, and 95% confidence intervals are determined using Prism Version 3.0 (Graph Pad Software). The test was also run against OVCAR3 cells (“OV”), and HCT116 cells (“H”).

[4] = tested on: MCF-7 human breast cancer cells; assay: XTT cytotoxicity assay, MCF-7 (M); type: cell-based; conditions: MCF7, MCF-7, 72 hours
Procedure: XTT Cytotoxicity Assay The XTT assay is a non-radioactive alternative for the [^51Cr] release cytotoxicity assay. XTT is a tetrazolium salt that is reduced to a formazan dye only by metabolically active, viable cells. The reduction of XTT is measured spectrophotometrically as OD490-OD650. To measure the cytotoxicity of specific compounds against cancer cells, 9×10^3 MCF-7 human breast cancer cells (shown in the tables as “(M)”), obtained from the American Type Culture Collection are plated per well in 96 well plates in DMEM medium with 10% fetal bovine serum, insulin, penicillin, and streptomycin. Following overnight culture at 37° C. and 5% CO2, the compounds to be tested, dissolved in DMSO, are added to the wells in 1 μl volume at the following concentrations: 80, 40, 20, 10, 5, 2.5, 1.25, and 0.625 μg/ml in triplicate. Additional concentrations are tested if required. 1 μl of DMSO is added to triplicate wells are the vehicle control. C75 is run at 40, 20, […], and 5 μg/ml in triplicate as positive controls. After 72 hours of incubation, cells are incubated for 4 hours with the XTT reagent as per manufacturer's instructions (Cell Proliferation Kit II (XTT) Roche). Plates are read at OD490 and OD650 on a Molecular Devices SpectraMax Plus Spectrophotometer. Three wells containing the XTT reagent without cells serve as the plate blank. XTT data are reported as OD490-OD650. Averages and standard error of the mean are computed using SOFTmax Pro software (Molecular Dynamics). The IC50 for the compounds is defined as the concentration of drug leading to a 50% reduction in OD490-OD650 compared to controls. The OD490-OD650 are computed by the SOFTmax PRO software (Molecular Devices) for each compound concentration. IC50 is calculated by linear regression, plotting the FAS activity as percent of control versus drug concentrations. Linear regression, best-fit line, r^2, and 95% confidence intervals are determined using Prism Version 3.0 (Graph Pad Software).

[5] = tested on: MCF-7 human breast cancer cells (fatty acid oxidation pathway activity); assay: Fatty acid oxidation ([14C]palmitate to acid soluble products); type: cell-based
Procedure: Measurement of Fatty Acid Oxidation and Determination of SC150 of Compounds This assay measures the degradation of [^14C]palmitate into acid soluble products and is a measure of fatty acid oxidation pathway activity in vitro. It is utilized to measure fatty acid oxidation in vitro. MCF-7 human breast cancer cells cultured as above, are plated at 2.5×10^5 cells per well in 24-well plates. Following overnight incubation, the compounds to be tested, solubilized in DMSO, are added at […], 0.39, 1.56, 6.25, 25, and 100 μg/ml in triplicate, with lower concentrations tested if necessary. DMSO is added to triplicate wells for a vehicle control. C75 is run at 5 and 10 μg/ml in triplicate as positive controls. After 1 hour of incubation, medium is removed 100 uM of [^14C] palmitate in cyclodextran and 200 uM carnitine in serum free medium (250 μl volume) is added to each well. After 30 minutes of additional incubation, the reaction is stopped by addition of 2.6N HClO4. Contents of each well are transferred to 1.5 ml Eppendorf tubes and 4N KOH is added. The tubes are incubated for 30 minutes at 60° C. 1 M NaAcetate and 3N H2SO4 is added to each tube and vortexed. The tubes are centrifuged at 1000 rpm for 5 minutes at RT. 250 μl of the supernatant is transferred to a 2 ml eppendorf tube. To each tube is added: 938 μl of chloroform:methanol (1:1), 468 μl chloroform and 281 μl of deionized water. The tubes are vortexed and centrifuged at 1000 rpm for 5 minutes at RT. 750 μl of the upper phase is transferred into a scintillation vial 5 ml of scintillant is added and vials are counted for 1 minute for ^14C. The Beckman Scintillation counter calculates the average cpm values for triplicates. The SC150 for the compounds is defined as the concentration of drug leading to a 150% increase in production of acid soluble products of [^14C] palmitate as compared to untreated controls. This is determined by plotting the average cpm for each inhibitor concentration tested, performing linear regression and computing the best-fit line, r^2 values, and 95% confidence intervals. The average cpm values are computed by the Beckman scintillation counter (Model LS6500) for each compound concentration. Computation of linear regression, best-fit line, r^2, and 95% confidence intervals are calculated using Prism Version 3.0 (Graph Pad Software). If a compound fails to achieve this 150% threshold it is considered negative. The maximum value achieved is also reported (FAO Max).

[6] = tested on: HCT116 cells; assay: XTT cytotoxicity assay, HCT116 (H); type: cell-based; conditions: Homo sapiens, HCT-116
Procedure: as §1

[7] = biological target: rat liver acyl-CoA synthetase; conditions: read-out: 50% inhibition of rat liver acyl-CoA synthetase (converted); cited from earlier work
[8] = tested on: Raji cells; conditions: cited from earlier work
[9] = tested on: Vero cells; conditions: cited from earlier work
[10] = tested on: Hela cells; conditions: cited from earlier work
[11] = biological target: viral HIV protease (Human immunodeficiency virus type 1 group M subtype B, UniProt P04585); conditions: cited from earlier work

Q: Which solubility [1] does the source give for `CCCCCCCCC1(C)SC(=O)C=C1OCC(=O)Nc1ccc(F)cc1` (stereo not drawn) here?
A: Its solubility is 80 µg/mL (≈ 203 µM).

Q: And the “Weight Loss” value [2]?
A: The value was 60 mg/ml: 2.4% (day 1).

Q: What about the IC50 [3] of the same compound?
A: The IC50 was 11.1 µg/mL (≈ 28.2 µM).

Q: What about the IC50 [4] of the same compound?
A: Its IC50 is 6.5 µg/mL (≈ 16.5 µM).

Q: And the Emax at 1.56 µg/mL ([5]; Homo sapiens, MCF7, at 1.56 μg/ml, read-out: FAO Max)?
A: The Emax at 1.56 µg/mL was 106%.

Q: And the “FAO SC 150” value ([5]; concentration leading to 150% of control acid soluble products, Neg = threshold not reached)?
A: The value was “Neg”.

Q: And the IC50 [6]?
A: Its IC50 is 5.6 µg/mL (≈ 14.2 µM).

Q: Which IC50 [7] does the source give for `CCCC=CCC=CC=CC=NN=NO` [Triacsin C, 1-hydroxy-3-(E,E,E-2′,4′,7′-undecatrienylidine) triazene] here?
A: The IC50 was 8.7 µM.

Q: And the “growth inhibition in Raji cells” value [8]?
A: Its value is “growth inhibition”.

Q: And the “growth inhibition of Vero cells” value [9]?
A: Its value is “inhibit growth”.

Q: And the “growth inhibition of Hela cells” value [10]?
A: The value was “inhibit growth”.

Q: With `C/C=C/C/C=C/CCC(=O)[C@H]1O[C@H]1C(N)=O` [cerulenin, (2S,3R)-2,3-epoxy-4-oxo-7,10 dodecadienoyl amide] as the compound, how does the “concentration at which viral HIV protease is inhibited” value [11] read?
A: Its value is 5 mg/mL.
